The subject of assay [1] is A431 cells [human epidermoid carcinoma, overexpressing HER1 (EGFR, ErbB1)]. Put plainly: In vitro tumor cell proliferation assay (Cell Titer-Glo luminescent cell viability), A431 cells. It counts as cell-based. The conditions noted are these: A-431, 72 h, 72 hours of drug exposure, Cell Titer-Glo readout, read-out: IC50, anti-proliferative activity in A431 cells. The text has this:
(§1) The utility of the compounds of the present invention can be illustrated, for example, by their activity in vitro in the in vitro tumor cell proliferation assay described below. The link between activity in tumor cell proliferation assays in vitro and anti-tumor activity in the clinical setting has been very well established in the art.
(§2) The following assay is one of the methods by which compound activity relating to treatment of the disorders identified herein can be determined.
(§3) The tumor cell proliferation assay used to test the compounds of the present invention involves a readout called Cell Titer-Glow® Luminescent Cell Viability Assay developed by Promega® (Cunningham, B A “A Growing Issue: Cell Proliferation Assays, Modern kits ease quantification of cell growth” The Scientist 2001, 15(13), 26, and Crouch, S P et al., “The use of ATP bioluminescence as a measure of cell proliferation and cytotoxicity” Journal of Immunological Methods 1993, 160, 81-88), that measures inhibition of cell proliferation. Generation of a luminescent signal corresponds to the amount of ATP present, which is directly proportional to the number of metabolically active (proliferating) cells.
(§4) A431 cells [human epidermoid carcinoma, ATCC # […], overexpressing HER1 (EGFR, ErbB1)] and BT474 [human breast carcinoma, ATCC # CRL-1555, overexpressing HER2 (ErbB2)] were plated at a density of 2.5×10^3 cells/well in 96 well black-clear bottom tissue culture plates in RPMI media with 10% Fetal Bovine Serum and incubated at 37° C. Twenty-four hours later, test compounds are added at a final concentration range from as high 100 μm to as low 64 pM depend on the activities of the tested compounds in serial dilutions at a final DMSO concentration of 0.1%. Cells were incubated for 72 hours at 37° C. in complete growth media after addition of the test compound. After 72 hours of drug exposure, the plates were equilibrated to room temperature for approximately 30 min. Then, using a Promega Cell Titer Glo Luminescent® assay kit, lysis buffer containing 100 microliters of the enzyme luciferase and its substrate, luciferin mixture, was added to each well. The plates were mixed for 2 min on orbital shaker to ensure cell lysis and incubated for 10 min at room temperature to stabilize luminescence signal. The samples were read on VICTOR 2 using Luminescence protocol, and analyzed with Analyze5 software to generate IC50 values.
(In general: Cellular ATP, detected with luciferase, serves as a proxy for viable cell number.)

Assay [2] deals with BT474 [human breast carcinoma, overexpressing HER2 (ErbB2)]. Put plainly: In vitro tumor cell proliferation assay (Cell Titer-Glo luminescent cell viability), BT474 cells. Format: cell-based. The conditions noted are these: BT-474, 72 h, 72 hours of drug exposure, Cell Titer-Glo readout, read-out: IC50, anti-proliferative activity in BT474 cells.
From the text: as §1, §2, §3, §4

Among the data in US7750017B2, “Heterocycles” (Bayer Schering Pharma Aktiengesellschaft, priority 2004, dated 2010) are IC50 values, retold here.

Take `Fc1cccc(COc2ccc(Nc3ncnc4sc5cc(N6CCOCC6)ccc5c34)cc2Cl)c1` [Example 44, [3-Chloro-4-(3-fluoro-benzyloxy)-phenyl]-(7-morpholin-4-yl-benzo[4,5]thieno[2,3-d]pyrimidin-4-yl)-amine]: the IC50 (usually the concentration at which inhibition is half-maximal) in assay [1] is not above 50 µM; in assay [2] it was not above 0.5 µM.

For `CCOC(=O)C(C(=O)OCC)c1ccc2c(c1)sc1ncnc(Nc3ccc(OCc4cccc(F)c4)c(Cl)c3)c12` [Example 45, 2-{4-[3-Chloro-4-(3-fluoro-benzyloxy)-phenylamino]-benzo[4,5]thieno[2,3-d]pyrimidin-7-yl}-malonic acid diethyl ester], the IC50 in assay [1] was not above 50 µM; in assay [2], not above 5 µM.

For the molecule `OCC(CO)c1ccc2c(c1)sc1ncnc(Nc3ccc(OCc4cccc(F)c4)c(Cl)c3)c12` [Example 46, 2-{4-[3-Chloro-4-(3-fluoro-benzyloxy)-phenylamino]-benzo[4,5]thieno[2,3-]pyrimidin-7-yl}-propane-1,3-diol], the IC50 in assay [1] is not above 5 µM; in assay [2], not above 0.5 µM.

As to `COC(=O)/C=C/c1ccc2c(c1)sc1ncnc(Nc3ccc(OCc4cccc(F)c4)c(Cl)c3)c12` [Example 47, methyl (2E)-3-[4-({3-chloro-4-[(3-fluorobenzyl)oxy]phenyl}amino)[1]benzothieno[2,3-d]pyrimidin-7-yl]acrylate], the IC50 in assay [1] and in assay [2] was not above 5 µM in each case.

For `O=C(O)/C=C/c1ccc2c(c1)sc1ncnc(Nc3ccc(OCc4cccc(F)c4)c(Cl)c3)c12` [Example 48, (2E)-3-[4-({3-chloro-4-[(3-fluorobenzyl)oxy]phenyl}amino)[1]benzothieno[2,3-d]pyrimidin-7-yl]acrylic acid], the IC50 in assay [1] is not above 50 µM; in assay [2] it was not above 5 µM.

For `CCN1CCN(C(=O)/C=C/c2ccc3c(c2)sc2ncnc(Nc4ccc(OCc5cccc(F)c5)c(Cl)c4)c23)CC1` [Example 49, N-{3-chloro-4-[(3-fluorobenzyl)oxy]phenyl}-7-[(1E)-3-(4-ethylpiperazin-1-yl)-3-oxoprop-1-en-1-yl][1]benzothieno[2,3-d]pyrimidin-4-amine], the IC50 in assay [1] and in assay [2] was not above 5 µM each time.

Take `COCCNC(=O)/C=C/c1ccc2c(c1)sc1ncnc(Nc3ccc(OCc4cccc(F)c4)c(Cl)c3)c12` [Example 50, (2E)-3-[4-({3-chloro-4-[(3-fluorobenzyl)oxy]phenyl}amino) [1]benzothieno[2,3-d]pyrimidin-7-yl]-N-(2-methoxyethyl)acrylamide]: the IC50 is not above 50 µM in assay [1] and not above 0.5 µM in assay [2].

As for `CN1CCN(C(=O)/C=C/c2ccc3c(c2)sc2ncnc(Nc4ccc(OCc5cccc(F)c5)c(Cl)c4)c23)CC1` [Example 51, N-{3-chloro-4-[(3-fluorobenzyl)oxy]phenyl}-7-[(1E)-3-(4-methylpiperazin-1-yl)-3-oxoprop-1-en-1-yl][1]benzothieno [2,3-d]pyrimidin-4-amine], the IC50 in assay [1] and in assay [2] was not above 5 µM each time.

In the case of `CN(C)[C@H]1CCN(C(=O)/C=C/c2ccc3c(c2)sc2ncnc(Nc4ccc(OCc5cccc(F)c5)c(Cl)c4)c23)C1` [Example 52, N-{3-chloro-4-[(3-fluorobenzyl)oxy]phenyl}-7-{(1E)-3-[(3S)-3-(dimethylamino)pyrrolidin-1-yl]-3-oxoprop-1-en-1-yl}[1]benzothieno[2,3-d] pyrimidin-4-amine], the IC50 in assay [1] and in assay [2] was not above 5 µM throughout.

For the molecule `CN(C)CCNC(=O)/C=C/c1ccc2c(c1)sc1ncnc(Nc3ccc(OCc4cccc(F)c4)c(Cl)c3)c12` [Example 54, (2E)-3-[4-({3-chloro-4-[(3-fluorobenzyl)oxy]phenyl}amino) [1]benzothieno[2,3-d]pyrimidin-7-yl]-N-[2-(dimethylamino)ethyl]acrylamide], the half-maximal inhibitory concentration (IC50) in assay [1] was not above 50 µM; in assay [2], not above 5 µM.

Consider `CCN1CCN(C(=O)C(O)C(O)c2ccc3c(c2)sc2ncnc(Nc4ccc(OCc5cccc(F)c5)c(Cl)c4)c23)CC1` (stereo not drawn) [Example 56, 1-[4-({3-chloro-4-[(3-fluorobenzyl)oxy]phenyl}amino)[1]benzothieno[2,3-d]pyrimidin-7-yl]-3-(4-ethylpiperazin-1-yl)-3-oxopropane-1,2-diol], for which the IC50 is not above 50 µM in assay [1] and not above 5 µM in assay [2].

With `CCN1CCN(C(=O)[C@H](O)[C@@H](O)c2ccc3c(c2)sc2ncnc(Nc4ccc(OCc5cccc(F)c5)c(Cl)c4)c23)CC1` [Example 57, (1S,2R)-1-[4-({3-chloro-4-[(3-fluorobenzyl)oxy]phenyl}amino) [1]benzothieno[2,3-d]pyrimidin-7-yl]-3-(4-ethylpiperazin-1-yl)-3-oxopropane-1,2-diol], the IC50 is not above 50 µM in assay [1] and not above 5 µM in assay [2].

On to `CCN1CCN(C(=O)[C@@H](O)[C@H](O)c2ccc3c(c2)sc2ncnc(Nc4ccc(OCc5cccc(F)c5)c(Cl)c4)c23)CC1` [Example 58, (1R,2S)-1-[4-({3-chloro-4-[(3-fluorobenzyl)oxy]phenyl}amino)[1]benzothieno[2,3-d]pyrimidin-7-yl]-3-(4-ethylpiperazin-1-yl)-3-oxopropane-1,2-diol], for which the IC50 is not above 50 µM in assay [1] and not above 5 µM in assay [2].

Regarding `CN(C)[C@H]1CCN(C(=O)C(O)C(O)c2ccc3c(c2)sc2ncnc(Nc4ccc(OCc5cccc(F)c5)c(Cl)c4)c23)C1` (stereo partly drawn) [Example 59, 1-[4-({3-chloro-4-[(3-fluorobenzyl)oxy]phenyl}amino) [1]benzothieno[2,3-d]pyrimidin-7-yl]-3-[(3S)-3-(dimethylamino)pyrrolidin-1-yl]-3-oxopropane-1,2-diol], the half-inhibitory concentration (IC50) in assay [1] is not above 50 µM; in assay [2], not above 5 µM.

Regarding `CS(=O)(=O)CCNC(=O)C(O)C(O)c1ccc2c(c1)sc1ncnc(Nc3ccc(OCc4cccc(F)c4)c(Cl)c3)c12` (stereo not drawn) [Example 60, 3-[4-({3-chloro-4-[(3-fluorobenzyl)oxy]phenyl}amino) [1]benzothieno[2,3-d]pyrimidin-7-yl]-2,3-dihydroxy-N-[2-(methylsulfonyl)ethyl]propanamide], the IC50 in assay [1] was not above 50 µM; in assay [2], not above 0.5 µM.

Consider `OC/C=C/c1ccc2c(c1)sc1ncnc(Nc3ccc(OCc4cccc(F)c4)c(Cl)c3)c12` [Example 61, (2E)-3-[4-({3-chloro-4-[(3-fluorobenzyl)oxy]phenyl}amino)[1]benzothieno[2,3-d]pyrimidin-7-yl]prop-2-en-1-ol], for which the IC50 was not above 50 µM in assay [1] and not above 0.5 µM in assay [2].

Regarding `OCC(O)C(O)c1ccc2c(c1)sc1ncnc(Nc3ccc(OCc4cccc(F)c4)c(Cl)c3)c12` (stereo not drawn) [Example 62, 1-[4-({3-chloro-4-[(3-fluorobenzyl)oxy]phenyl}amino)[1]benzothieno[2,3-d]pyrimidin-7-yl]propane-1,2,3-triol], the IC50 in assay [1] was not above 5 µM; in assay [2], not above 0.5 µM.

For the molecule `OC[C@H](O)[C@@H](O)c1ccc2c(c1)sc1ncnc(Nc3ccc(OCc4cccc(F)c4)c(Cl)c3)c12` [Example 63, (1S,2S)-1-[4-({3-chloro-4-[(3-fluorobenzyl)oxy]phenyl}amino) [1]benzothieno[2,3-d]pyrimidin-7-yl]propane-1,2,3-triol], the IC50 in assay [1] is not above 5 µM; in assay [2], not above 0.5 µM.
